Holding throughout (type): cell-based
Data set [1] has as its system human peripheral blood mononuclear cells (PBMC). In words: PBMC cytotoxicity assay (CellTiter-Glo). Particulars: 2 days, pCC50. A digest of the protocol: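 Human PBMC (50,000 cells/well) stimulated with IFN-γ 100 ng/ml and LPS 50 ng/ml were exposed to 11-point 3-fold compound dilutions for 2 days at 37 °C, 5% CO2. Viability read by CellTiter-Glo ATP luminescence and normalized to no-cell and stimulated-DMSO controls. XC50 derived by four-parameter fit.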

In data set [2] the target is T1, indoleamine 2, 3-dioxygenase (IDO1) (Homo sapiens, UniProt P14902). The data set can be described thus: IDO1 HeLa RapidFire MS assay (kynurenine detection by mass spectrometry). Set-up: to induce the expression of indoleamine 2, 3-dioxygenase (IDO1). The conditions noted are these: HeLa cells, pIC50, read-out: IDO1_HELA_PXC50 (converted). A digest of the protocol:
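Compound potency reported as pIC50 from kynurenine/internal-standard ratio (RapidFire MS) in supernatant of IFN-γ-induced (10 nM) HeLa cells, 5,000 per well, after 2 days' treatment with 11-point dilutions. Cytotoxicity in the same format by luminescent ATP detection, reported as pCC50.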

Data set [3] relates to human epithelial HeLa cells. The data set can be described thus: HeLa cytotoxicity assay (CellTiter-Glo). Particulars: pCC50. A digest of the protocol:
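HeLa cells (5,000/well) stimulated with 10 nM IFN-γ, exposed to 11-point 3-fold compound dilutions for 2 days at 37 °C; viability by CellTiter-Glo ATP luminescence. Normalized to cell-free (100% cytotoxicity) and stimulated-cell DMSO (0%) controls; four-parameter fit gives pCC50.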

Data set [4] concerns the target T1, indoleamine 2, 3-dioxygenase (IDO1). The data set can be described thus: IDO1 PBMC RapidFire MS assay (kynurenine detection by mass spectrometry). Also on record: to induce the expression of indoleamine 2, 3-dioxygenase (IDO1); host or cells: human PBMC stimulated with IFN-gamma and LPS. Particulars: human PBMC stimulated with IFN-γ and LPS, 2 days, pIC50, read-out: PBMC PXC50 (converted). A digest of the protocol:
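PBMCs (50,000 cells/well) stimulated with IFN-γ 100 ng/ml plus LPS 50 ng/ml, treated with 11-point 3-fold compound series for 2 days at 37° C. Supernatant kynurenine measured by RapidFire MS, normalised to internal standard; parallel cytotoxicity by CellTiter-Glo luminescence; curves fitted for XC50.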

T1 sequence (P14902 whole entry): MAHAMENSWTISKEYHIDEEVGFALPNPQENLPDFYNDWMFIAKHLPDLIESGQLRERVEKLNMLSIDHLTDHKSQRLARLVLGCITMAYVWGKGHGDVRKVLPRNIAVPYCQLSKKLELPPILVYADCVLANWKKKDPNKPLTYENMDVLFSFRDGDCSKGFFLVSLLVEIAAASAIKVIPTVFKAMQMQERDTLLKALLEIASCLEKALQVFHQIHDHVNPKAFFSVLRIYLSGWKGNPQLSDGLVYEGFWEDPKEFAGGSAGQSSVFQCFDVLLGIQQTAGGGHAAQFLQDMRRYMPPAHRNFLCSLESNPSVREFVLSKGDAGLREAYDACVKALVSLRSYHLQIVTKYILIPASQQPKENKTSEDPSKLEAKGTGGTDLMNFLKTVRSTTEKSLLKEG

Take `COc1ccc2[nH]c(Nc3cc(-c4ccccc4C(=O)O)ccc3N(CC(C)C)C3CCCCC3)nc2c1` [example 287, 4′-[cyclohexyl(2-methylpropyl)amino]-3′-[(5-methoxy-1H-1,3-benzodiazol-2-yl)amino]-[1,1′-biphenyl]-2-carboxylic acid]: the “PBMC TOX PXC50” value in data set [1] is less than 5. In addition, the IC50 in data set [2] and in data set [4] was 7.94 nM each time. In data set [3], the HELA_IDO1_TOX_PXC50 is listed as less than 5.

Regarding `CC(C)CN(c1ccc(-c2ccccc2C(=O)O)cc1Nc1nc2ccccc2o1)C1CCOCC1` [example 291, 3′-[(1,3-benzoxazol-2-yl)amino]-4′-[(2-methylpropyl)(oxan-4-yl)amino]-[1,1′-biphenyl]-2-carboxylic acid], the “PBMC TOX PXC50” value in data set [1] is given as less than 5. Moreover, the figures for the IC50 in data set [2] and in data set [4] were 100 nM and 126 nM, respectively. Further, the HELA_IDO1_TOX_PXC50 in data set [3] is less than 5.

As to `CC(C)CN(c1ccc([C@H](C)CC(=O)O)cc1Nc1nc(C(F)(F)F)ns1)C1CCN(C(=O)OC(C)C)CC1` [Example 65, (R)-3-(4-(isobutyl(1-(isopropoxycarboxyl)piperidin-4-yl)amino)-3-((3-(trifluoromethyl)-1,2,4-thiadiazol-5-yl)amino)phenyl)butanoic Acid], the “PBMC TOX PXC50” value in data set [1] is listed as less than 5. The IC50 in data set [2] was 3.98 nM; in data set [4], 1.26 nM. For the same molecule, the HELA_IDO1_TOX_PXC50 in data set [3] is recorded as less than 5.

`CC(C)CN(c1ccc([C@@H](C)CC(=O)O)cc1Nc1ccnc(Cl)n1)C1CCCCC1` [example 300]: in data set [1], the “PBMC TOX PXC50” value is reported as less than 5. Further, the values for the IC50 in data set [2] and in data set [4] were 3.98 nM and 2.51 nM, respectively. Further, the HELA_IDO1_TOX_PXC50 in data set [3] is reported as less than 5.

In the case of `CC(C)CN(c1ccc(-c2ccccc2C(=O)O)cc1Nc1nc(C(F)(F)F)ns1)[C@H]1CC[C@H](O)CC1` [Example 112, 4′-(((1r,4r)-4-hydroxycyclohexyl) (isobutyl)amino)-3′-((3-(trifluoromethyl)-1,2,4-thiadiazol-5-yl)amino)-[1,1′-biphenyl]-2-carboxylic Acid], the “PBMC TOX PXC50” value in data set [1] was determined as 6.1. Besides, the IC50 is 15.8 nM in data set [2] and 7.94 nM in data set [4]. In data set [3], this molecule showed an HELA_IDO1_TOX_PXC50 of less than 5.

Take `CC(C)CN(c1ccc([C@H](C)CC(=O)O)cc1Nc1cccc(C(F)(F)F)n1)C1CCCCC1` [example 172, (3R)-3-{4-[cyclohexyl(2-methylpropyl)amino]-3-{[6-(trifluoromethyl)pyridin-2-yl]amino}phenyl}butanoic acid]: the “PBMC TOX PXC50” value in data set [1] is listed as less than 5. Moreover, the IC50 in data set [2] was 79.4 nM; in data set [4], 39.8 nM. The HELA_IDO1_TOX_PXC50 in data set [3] is on record as less than 5.

With `CC(C)CN(c1ccc([C@H](C)CC(=O)O)cc1NC1CCCC(C)(C)C1)C1CCCCC1` (stereo partly drawn) [example 183, (3R)-3-{4-[cyclohexyl(2-methylpropyl)amino]-3-[(3,3-dimethylcyclohexyl)ami-no]phenyl}butanoic acid], the “PBMC TOX PXC50” value in data set [1] is recorded as less than 5. Moreover, the IC50 in data set [2] was 398 nM; in data set [4], 200 nM. For the same molecule, the HELA_IDO1_TOX_PXC50 in data set [3] is less than 5.

With `CC(C)CN(c1ccc(C(C)CC(=O)O)cc1NC1=N[C@@H](C)CO1)C1CCCCC1` (stereo partly drawn) [example 152, 3-{4-[cyclohexyl(2-methylpropyl)amino]-3-{[(4S)-4-methyl-4,5-dihydro-1,3-oxazol-2-yl]amino}phenyl}butanoic acid], the “PBMC TOX PXC50” value in data set [1] is reported as less than 5. The IC50 in data set [2] and in data set [4] was 3160 nM each time. This molecule displayed an HELA_IDO1_TOX_PXC50 in data set [3] of 5.4.

For `CC(C)CN(c1ccc([C@H](C)CC(=O)O)cc1Nc1nc(C2CC2)ns1)C1CCOCC1` [Example 28, (R)-3-(3-((3-cyclopropyl-1,2,4-thiadiazol-5-yl)amino)-4-(isobutyl(tetrahydro-2H-pyran-4-yl)amino)phenyl)butanoic Acid], the “PBMC TOX PXC50” value in data set [1] is given as less than 5. Also, the values for the IC50 in data set [2] and in data set [4] were 6.31 nM and 5.01 nM, respectively. Besides, the HELA_IDO1_TOX_PXC50 in data set [3] is less than 5.

Take `CO[C@H]1CC[C@H](N(CC(C)C)c2ccc(-c3ccccc3C(=O)O)cc2Nc2nc(C(F)(F)F)ns2)CC1` [Example 111, 4′-(isobutyl((1r,4r)-4-methoxycyclohexyl)amino)-3′-((3-(trifluoromethyl)-1,2,4-thiadiazol-5-yl)amino)-[1,1′-biphenyl]-2-carboxylic Acid]: the “PBMC TOX PXC50” value in data set [1] was less than 5. The IC50 in data set [2] was 10 nM; in data set [4], 3.98 nM. This molecule also had an HELA_IDO1_TOX_PXC50 in data set [3] of less than 5.

As to `CC(C)CN(c1ccc(C(C)CC(=O)O)cc1Nc1nc(C(F)(F)F)ns1)C1CCOCC1` (stereo not shown) [example 202, 3-{4-[(2-methylpropyl)(oxan-4-yl)amino]-3-{[3-(trifluoromethyl)-1,2,4-thiadiazol-5-yl]amino}phenyl}butanoic acid], in data set [1], the “PBMC TOX PXC50” value is listed as less than 5. For the same molecule, the IC50 in data set [2] is 3.16 nM; in data set [4], 1.58 nM. In addition, the HELA_IDO1_TOX_PXC50 in data set [3] is less than 5.

As to `CC(C)CN(c1ccc(-c2ccccc2C(=O)O)cc1Nc1nc(C(F)(F)F)ns1)C1CCN(c2nc(C(F)(F)F)ns2)CC1` [Example 92, 4′-(isobutyl(1-(3-(trifluoromethyl)-1,2,4-thiadiazol-5-yl)piperidin-4-yl)amino)-3′-((3-(trifluoromethyl)-1,2,4-thiadiazol-5-yl)amino)-[1,1′-biphenyl]-2-carboxylic Acid], in data set [1], the “PBMC TOX PXC50” value is 6.1. Moreover, the IC50 was 5.01 nM in data set [2] and 1 nM in data set [4]. In addition, in data set [3], the HELA_IDO1_TOX_PXC50 is recorded as less than 5.

Take `COCc1nnc(Nc2cc([C@H](C)CC(=O)O)ccc2N(CC(C)C)C2CCOCC2)[nH]1` [example 213, (3R)-3-(3-{[5-(methoxymethyl)-4H-1,2,4-triazol-3-yl]amino}-4-[(2-methylpropyl)(oxan-4-yl)amino]phenyl)butanoic acid]: the “PBMC TOX PXC50” value in data set [1] is less than 5. Besides, the IC50 was 794 nM in data set [2] and 200 nM in data set [4]. Further, the HELA_IDO1_TOX_PXC50 in data set [3] is listed as less than 5.

Consider `CC[C@H](CC(=O)O)c1ccc(N(CC(C)C)C2CCCCC2)c(Nc2nc(C(F)(F)F)ns2)c1` [Example 38, (R)-3-(4-(cyclohexyl(isobutyl)amino)-3-((3-(trifluoromethyl)-1,2,4-thiadiazol-5-yl)amino)phenyl)pentanoic Acid], for which, in data set [1], the “PBMC TOX PXC50” value is less than 5. For the same molecule, the IC50 in data set [2] is 2 nM; in data set [4] it was 0.794 nM. Further, the HELA_IDO1_TOX_PXC50 in data set [3] is less than 5.

Turning to `CC(C)CN(c1ccc(C(C)CC(=O)O)cc1NCc1ccccn1)C1CCCCC1` (stereo not shown) [example 161, 3-{4-[cyclohexyl(2-methylpropyl)amino]-3-{[(pyridin-2-yl)methyl]amino}phenyl} butanoic acid], in data set [1], the “PBMC TOX PXC50” value is on record as less than 5. Further, the IC50 in data set [2] is 2510 nM; in data set [4], 2000 nM. Further, the HELA_IDO1_TOX_PXC50 in data set [3] was less than 5.

On to `CC(C)CN(c1ccc(C2CC2C(=O)O)cc1Nc1nc(C(F)(F)F)ns1)C1CCCCC1` (single isomer, unassigned) [Example 104, 2-(4-(cyclohexyl(isobutyl)amino)-3-((3-(trifluoromethyl)-1,2,4-thiadiazol-5-yl)amino)phenyl)cyclopropanecarboxylic Acid], for which, in data set [1], the “PBMC TOX PXC50” value is less than 5. Further, the figures for the IC50 in data set [2] and in data set [4] were 3.16 nM and 2.51 nM, respectively. This molecule also gave an HELA_IDO1_TOX_PXC50 in data set [3] of less than 5.

As for `CC(C)CN(CC(C)C)c1ccc(-c2ccccc2C(=O)O)cc1Nc1nc(C(F)(F)F)ns1` [Example 90, 4′-(diisobutylamino)-3′-((3-(trifluoromethyl)-1,2,4-thiadiazol-5-yl)amino)-[1,1′-biphenyl]-2-carboxylic Acid], the “PBMC TOX PXC50” value in data set [1] is reported as less than 5. Also, the IC50 was 25.1 nM in data set [2] and 10 nM in data set [4]. Further, in data set [3], the HELA_IDO1_TOX_PXC50 was less than 5.

Take `CC(C)CN(c1ccc([C@H](C)CC(=O)O)cc1Nc1ccc(Cl)nc1)[C@H]1CC[C@@H](O)CC1` [Example 58, (R)-3-(3-((6-chloropyridin-3-yl)amino)-4-(((1s,4S)-4-hydroxycyclohexyl) (isobutyl)amino)phenyl)butanoic Acid]: the “PBMC TOX PXC50” value in data set [1] is given as less than 5. The results for the IC50 in data set [2] and in data set [4] were 10 nM and 7.94 nM, respectively. In data set [3], this molecule displayed an HELA_IDO1_TOX_PXC50 of less than 5.

Consider `CC(C)CN(c1ccc(C(C)CC(=O)O)cc1NC1=N[C@@H](C(F)(F)F)CS1)C1CCCCC1` (stereo partly drawn) [example 154, 3-{4-[cyclohexyl(2-methylpropyl)amino]-3-{[(4S)-4-(trifluoromethyl)-4,5-dihydro-1,3-thiazol-2-yl]amino}phenyl}butanoic acid], for which the “PBMC TOX PXC50” value in data set [1] was less than 5. For the same molecule, the IC50 in data set [2] was 31.6 nM; in data set [4], 20 nM. Moreover, the HELA_IDO1_TOX_PXC50 in data set [3] is recorded as less than 5.

The record behind these values is patent US10899754B2, “Modulators of indoleamine 2,3-dioxygenase” (GLAXOSMITHKLINE INTELLECTUAL PROPERTY DEVELOPMENT LIMITED, priority 2016, dated 2021).
